Where two headings read alike, the source gives them in different places.

The test system of the data set is Spontaneously Hypertensive Rats. The data set can be described thus: Test 1: antihypertensive effects (systolic tail artery blood pressure) and heart rate in spontaneously hypertensive rats, oral. The note with it: SHR, oral 1 mg/Kg; for change in vivo at 1 mg/kg: Rattus norvegicus; for Change (%) in heart rate: maximum value. Type of data set: in vivo, rat (male, SHR). On the procedure:
The antihypertensive effects of the certain compounds of this invention were studied in the following manner.
Among male, spontaneously hypertensive rats (SHRs) of 20 weeks of age or older and 350-430 g heavy all of which had developed hypertension, those having systolic blood pressures of 180 mmHg or higher were used in groups, each of which was constituted of 3-4 of the rats. […] Besides, heart rates were also measured simultaneously. The compounds were each dissolved or suspended in a 0.5% methylcellulose solution and then administered orally.
*All administered orally at a dosage of 1 mg/Kg except for the compounds
**Each percent change in heart rate is indicated by the corresponding

[1] abbreviates: 1 hour, read-out: Antihypertensive effects, change (%) in blood pressure, 1 hour later.
Where [2] appears, read: 3 hours, read-out: Antihypertensive effects, change (%) in blood pressure, 3 hours later.
[3] abbreviates: 6 hours, read-out: Antihypertensive effects, change (%) in blood pressure, 6 hours later.
[4] abbreviates: 24 hours, read-out: Antihypertensive effects, change (%) in blood pressure, 24 hours later.

In the case of `COc1cc2nc(N3CCN(c4ncc(C(=O)Nc5ccccc5)c(C)n4)CC3)nc(N)c2cc1OC` [Example 43], the “Change (%) in heart rate” value is “+5.7%”. The change in vivo at 1 mg/kg under setting [1] came to 4.5%. Under setting [2], the change in vivo at 1 mg/kg is 0.5%. Further, the change in vivo at 1 mg/kg under setting [3] is -6.5%. The change in vivo at 1 mg/kg under setting [4] was -9.5%.

On to `COc1cc2nc(N3CCN(c4ncc(C(=O)NCc5ccccc5)c(C)n4)CC3)nc(N)c2cc1OC` [Example 44], for which the “Change (%) in heart rate” value is “+7.9%”. In addition, under setting [1], the change in vivo at 1 mg/kg is 9.1%. Moreover, the change in vivo at 1 mg/kg under setting [2] worked out at 0%. For the same compound, the change in vivo at 1 mg/kg under setting [3] is -4%. For the same compound, the change in vivo at 1 mg/kg under setting [4] is 0%.

With `COc1cc2nc(N3CCN(c4ncc(C(=O)NC5CCCCC5)c(C)n4)CC3)nc(N)c2cc1OC` [Example 45], the “Change (%) in heart rate” value is “+4.2%”. The change in vivo at 1 mg/kg under setting [1] is -1.5%. Besides, under setting [2], the change in vivo at 1 mg/kg is -2.5%. Also, the change in vivo at 1 mg/kg under setting [3] was -8%. Under setting [4], the change in vivo at 1 mg/kg is -5.5%.

Turning to `COc1cc2nc(N3CCN(c4ncc(C(=O)N(C)C)c(C)n4)CC3)nc(N)c2cc1OC` [Example 46], the “Change (%) in heart rate” value is on record as “+7.4%”. Further, the change in vivo at 1 mg/kg under setting [1] was determined as 0%. Also, the change in vivo at 1 mg/kg under setting [2] is -11.9%. Further, the change in vivo at 1 mg/kg under setting [3] is -17.5%. For the same compound, under setting [4], the change in vivo at 1 mg/kg is -5.7%.

As to `COc1cc2nc(N3CCN(c4ncc(C(=O)NN(C)C)c(C)n4)CC3)nc(N)c2cc1OC` [Example 47], the “Change (%) in heart rate” value was “+6.3%”. Under setting [1], the change in vivo at 1 mg/kg was -3.5%. For the same compound, under setting [2], the change in vivo at 1 mg/kg was -9%. Also, the change in vivo at 1 mg/kg under setting [3] is -12.5%. Further, the change in vivo at 1 mg/kg under setting [4] is -2.5%.

In the case of `COc1cc2nc(N3CCN(c4ncc(C(=O)NCC(F)(F)F)c(C)n4)CC3)nc(N)c2cc1OC` [Example 48], the “Change (%) in heart rate” value was “+6.9%”. For the same compound, under setting [1], the change in vivo at 1 mg/kg is -4.5%. Under setting [2], the change in vivo at 1 mg/kg was -9%. The change in vivo at 1 mg/kg under setting [3] was -15%. Under setting [4], the change in vivo at 1 mg/kg was -4%.

On to `COc1cc2nc(N3CCN(c4ncc(C(=O)N5CCCC5)c(C)n4)CC3)nc(N)c2cc1OC` [Example 49], for which the “Change (%) in heart rate” value is recorded as “+6.3%”. Besides, under setting [1], the change in vivo at 1 mg/kg was -4.5%. Moreover, the change in vivo at 1 mg/kg under setting [2] is -10.6%. Further, the change in vivo at 1 mg/kg under setting [3] was -13.1%. For the same compound, the change in vivo at 1 mg/kg under setting [4] is -7.5%.

Consider `CCOC(=O)c1cnc(N2CCN(c3nc(N)c4cc(OC)c(OC)cc4n3)CC2)nc1O` [Example 50], for which the “Change (%) in heart rate” value is listed as “+2.9%”. In addition, the change in vivo at 1 mg/kg under setting [1] is -1.5%. In addition, the change in vivo at 1 mg/kg under setting [3] is -14.6%. Moreover, the change in vivo at 1 mg/kg under setting [4] is -6.3%.

In the case of `COc1cc2nc(N3CCN(c4ncc(C#N)c(O)n4)CC3)nc(N)c2cc1OC` [Example 51], the “Change (%) in heart rate” value is “+3.0%”. In addition, the change in vivo at 1 mg/kg under setting [1] turned out to be 8.6%. Moreover, the change in vivo at 1 mg/kg under setting [2] stood at 0%. Moreover, the change in vivo at 1 mg/kg under setting [3] is -4.1%. Besides, the change in vivo at 1 mg/kg under setting [4] was -2.5%.

Regarding `CCN(CC)C(=O)c1cnc(N2CCN(c3nc(N)c4cc(OC)c(OC)cc4n3)CC2)nc1OC` [Example 52], the “Change (%) in heart rate” value is reported as “+3.6%”. Further, under setting [1], the change in vivo at 1 mg/kg was -8%. Besides, under setting [2], the change in vivo at 1 mg/kg was -13%. Besides, under setting [3], the change in vivo at 1 mg/kg is -19.5%. For the same compound, the change in vivo at 1 mg/kg under setting [4] is -3%.

Consider `CCN(CC)C(=O)c1cnc(N2CCN(c3nc(N)c4cc(OC)c(OC)cc4n3)CC2)nc1SC` [Example 53], for which the “Change (%) in heart rate” value is reported as “+25.7%”. For the same compound, under setting [1], the change in vivo at 1 mg/kg is -27.9%. In addition, under setting [2], the change in vivo at 1 mg/kg was -31.3%. Also, the change in vivo at 1 mg/kg under setting [3] was -36.1%. In addition, under setting [4], the change in vivo at 1 mg/kg was -12%.

As to `CCOC(=O)c1cnc(N2CCN(c3nc(N)c4cc(OC)c(OC)cc4n3)CC2)nc1N` [Example 54], the “Change (%) in heart rate” value is given as “+5.2%”. Also, under setting [1], the change in vivo at 1 mg/kg is -4.3%. Under setting [2], the change in vivo at 1 mg/kg is -11.4%. In addition, under setting [3], the change in vivo at 1 mg/kg is -16.7%. Further, the change in vivo at 1 mg/kg under setting [4] was -4.8%.

Regarding `CCOC(=O)c1cnc(N2CCN(c3nc(N)c4cc(OC)c(OC)cc4n3)CC2)nc1NC` [Example 55], the “Change (%) in heart rate” value was “+7.0%”. Also, under setting [1], the change in vivo at 1 mg/kg is -6.5%. Further, under setting [2], the change in vivo at 1 mg/kg was -21.9%. Further, the change in vivo at 1 mg/kg under setting [3] was -29.9%. Also, the change in vivo at 1 mg/kg under setting [4] is -7.5%.

Consider `CCOC(=O)c1cnc(N2CCN(c3nc(N)c4cc(OC)c(OC)cc4n3)CC2)nc1N(C)C` [Example 56], for which the “Change (%) in heart rate” value is “+13.5%”. For the same compound, the change in vivo at 1 mg/kg under setting [1] was -21.4%. In addition, under setting [2], the change in vivo at 1 mg/kg was -22.4%. Moreover, the change in vivo at 1 mg/kg under setting [3] was -22.9%. Also, the change in vivo at 1 mg/kg under setting [4] is -4.5%.

`CCNc1nc(N2CCN(c3nc(N)c4cc(OC)c(OC)cc4n3)CC2)ncc1C(=O)OCC` [Example 57]: the “Change (%) in heart rate” value is “+4.3%”. Further, under setting [1], the change in vivo at 1 mg/kg is -10.4%. For the same compound, the change in vivo at 1 mg/kg under setting [2] is -18.9%. Also, under setting [3], the change in vivo at 1 mg/kg was -27.9%. For the same compound, the change in vivo at 1 mg/kg under setting [4] was -9%.

On to `CCOC(=O)c1cnc(N2CCN(c3nc(N)c4cc(OC)c(OC)cc4n3)CC2)nc1N(CC)CC` [Example 58], for which the “Change (%) in heart rate” value is “+9.8%”. In addition, the change in vivo at 1 mg/kg under setting [1] was -7.4%. The change in vivo at 1 mg/kg under setting [2] was -17.6%. Further, the change in vivo at 1 mg/kg under setting [3] is -22.5%. For the same compound, the change in vivo at 1 mg/kg under setting [4] is -9.8%.

Take `CCOC(=O)c1cnc(N2CCN(c3nc(N)c4cc(OC)c(OC)cc4n3)CC2)nc1NC(C)C` [Example 59]: the “Change (%) in heart rate” value is recorded as “+5.7%”. Also, under setting [1], the change in vivo at 1 mg/kg was -10.1%. Also, under setting [2], the change in vivo at 1 mg/kg was -23.9%. Moreover, the change in vivo at 1 mg/kg under setting [3] was -30.6%. Also, the change in vivo at 1 mg/kg under setting [4] is -12.4%.

For `CCOC(=O)c1cnc(N2CCN(c3nc(N)c4cc(OC)c(OC)cc4n3)CC2)nc1NC(C)=O` [Example 60], the “Change (%) in heart rate” value is “+6.0%”. For the same compound, the change in vivo at 1 mg/kg under setting [1] was -1.6%. The change in vivo at 1 mg/kg under setting [2] was -5.2%. Moreover, the change in vivo at 1 mg/kg under setting [3] was -8.8%. The change in vivo at 1 mg/kg under setting [4] was -1%.

Regarding `CCNc1nc(N2CCN(c3nc(N)c4cc(OC)c(OC)cc4n3)CC2)ncc1C(=O)OC(C)C` [Example 61], the “Change (%) in heart rate” value is on record as “+12.4%”. For the same compound, the change in vivo at 1 mg/kg under setting [1] is -2.4%. For the same compound, the change in vivo at 1 mg/kg under setting [2] was -22%. The change in vivo at 1 mg/kg under setting [3] was -28.2%. Further, the change in vivo at 1 mg/kg under setting [4] was -12%.

For the compound `CCNC(=O)Cc1cnc(N2CCN(c3nc(N)c4cc(OC)c(OC)cc4n3)CC2)nc1NCC` [Example 63], the “Change (%) in heart rate” value is given as “+6.8%”. Further, the change in vivo at 1 mg/kg under setting [1] was found to be 3.1%. Also, under setting [2], the change in vivo at 1 mg/kg was -4.7%. Under setting [3], the change in vivo at 1 mg/kg is -9%. For the same compound, the change in vivo at 1 mg/kg under setting [4] was -6.6%.

`CCNC(=O)c1cnc(N2CCN(c3nc(N)c4cc(OC)c(OC)cc4n3)CC2)nc1N` [Example 64]: the “Change (%) in heart rate” value is recorded as “+9.9%”. Moreover, under setting [1], the change in vivo at 1 mg/kg was -1.4%. Under setting [2], the change in vivo at 1 mg/kg was -9.6%. Further, under setting [3], the change in vivo at 1 mg/kg is -13.9%. Under setting [4], the change in vivo at 1 mg/kg was -1.9%.

These data come from patent US4734418A, “Quinazoline compounds and antihypertensives” (priority 1984, dated 1988).
